One experiment has as its target Beta-lactamase OXA-1 (Escherichia coli, UniProt P13661). Briefly: Kinetic Assay. The following applies: pH 7.2. The procedure: (§1) Steady-state kinetics were performed on an Agilent 8453 diode array spectrophotometer (Palo Alto, CA) in 50 mM sodium phosphate buffer (pH 7.2) supplemented with 20 mM NaHCO3.
The next experiment has as its target Oxa40 (Acinetobacter baumannii, UniProt Q8RLA6). Briefly: Kinetic Assay. The settings on record: pH 7.2. The procedure: as §1

Our source for the IC50 and Ki values is BindingDB's records for doi:10.1074/jbc.M113.533562 (Case Western Reserve University, 2014).

Oxa40, sequence (Q8RLA6 whole entry): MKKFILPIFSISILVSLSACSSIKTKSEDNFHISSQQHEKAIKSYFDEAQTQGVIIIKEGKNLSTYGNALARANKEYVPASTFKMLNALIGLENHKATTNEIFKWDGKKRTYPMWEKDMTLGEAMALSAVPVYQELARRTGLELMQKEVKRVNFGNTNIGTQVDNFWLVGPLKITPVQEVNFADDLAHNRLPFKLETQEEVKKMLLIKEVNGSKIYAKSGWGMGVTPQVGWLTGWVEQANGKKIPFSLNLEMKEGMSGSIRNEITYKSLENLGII
Beta-lactamase OXA-1, sequence (P13661 whole entry): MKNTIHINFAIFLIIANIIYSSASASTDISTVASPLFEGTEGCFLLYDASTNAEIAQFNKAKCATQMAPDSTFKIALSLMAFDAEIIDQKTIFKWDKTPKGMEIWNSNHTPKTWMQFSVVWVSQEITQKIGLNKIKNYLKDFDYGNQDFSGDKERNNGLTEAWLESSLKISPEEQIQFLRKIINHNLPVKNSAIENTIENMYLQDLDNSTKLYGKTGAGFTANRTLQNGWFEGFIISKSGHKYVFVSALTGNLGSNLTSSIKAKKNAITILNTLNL

In general, IC50 refers to the concentration needed to halve the response being measured. Read a low IC50 as greater potency. As usually defined, the Ki is the equilibrium dissociation constant of an inhibitor or competing ligand from its target. On Beta-lactamase OXA-1, `O=C(O)C1=CS[C@@H]2/C(=C\c3cn4c(n3)COCC4)C(=O)N12` [Penem 3] came in with an IC50 of 0.06 µM and a Ki of 0.38 µM. Moreover, on Oxa40, the IC50 came out at 0.16 µM and the affinity corresponds to a Ki of 0.15 µM.
On Beta-lactamase OXA-1, `O=C(O)C1=CS[C@@H]2/C(=C\c3cc4n(n3)CSC4)C(=O)N12` [Penem 1] showed an IC50 of 0.03 µM and a Ki of 0.05 µM. At Oxa40, this molecule displayed an IC50 of 0.15 µM and a Ki of 0.03 µM.
